Where a name gives a salt, the structure may show the parent alone.

In the experiment the test system is Human Platelet Rich Plasma. Description: ADP induced Aggregation of Human Platelet Rich Plasma. Type of experiment: cell-based. Particulars: 37° C., half-maximal inhibition, read-out: Human Platelet Agg IC50. As for the experimental part:
Healthy aspirin free donors were randomly selected from a pool of volunteers. The harvesting of platelet rich plasma and subsequent ADP induced platelet aggregation assays were performed as described in Zucker, M. B., "Platelet Aggregation Measured by the Photometric Method", Methods in Enzymology 169(1989):117-133. Standard venipuncture techniques using a butterfly allowed the withdrawal of 45 mL of whole blood into a 60 mL syringe containing 5 mL of 3.8% trisodium citrate. Following thorough mixing in the syringe, the anti-coagulated whole blood was transferred to a 50 mL conical polyethylene tube. The blood was centrifuged at room temperature for 12 minutes at 200 xg to sediment non-platelet cells. Platelet rich plasma was removed to a polyethylene tube and stored at room temperature until used. Platelet poor plasma was obtained from a second centrifugation of the remaining blood at 2000 xg for 15 minutes. Platelet counts are typically 300,000 to 500,000 per microliter. Platelet rich plasma (0.45 mL) was aliquoted into siliconized cuvettes and stirred (1100 rpm) at 37° C. for 1 minute prior to adding 50 uL of pre-diluted test compound. […] Aggregation was recorded for 3 minutes in a Payton dual channel aggregometer (Payton Scientific, Buffalo, N.Y.). […] All compounds were tested in duplicate and half-maximal inhibition (IC50) was calculated graphically from the dose response curve.

For the compound `N=C(N)NCCCC(=O)NCCC(=O)NC(CC(=O)O)c1cccnc1` (racemic) [Example 5, (±) β-[[3-[[4-[(aminoiminomethyl)amino]-1-oxobutyl]amino]-1-oxopropyl]amino]-3-pyridinepropanoic acid, bistrifluoroacetate salt], the IC50 – broadly, the point on the concentration scale where inhibition reaches its midpoint – was determined as 200 µM.

As to `N=C(N)NCCCCC(=O)NCC(=O)NC(CC(=O)O)c1cccnc1` (stereo not drawn) [Example 1, β-[[2-[[5-[(aminoiminomethyl)amino]-1-oxopentyl]amino]-1-oxoethyl]amino]-3-pyridinepropanoic acid, bistrifluoroacetate salt], the IC50 was found to be 20 µM.

The values above are taken from US5798370A, “Platelet aggregation inhibitors” (G. D. Searle & Co., priority 1996, dated 1998).
